Test results as given in paper PMC7238042, “π-π-Stacked Poly(ε-caprolactone)-b-poly(ethylene glycol) Micelles Loaded with a Photosensitizer for Photodynamic Therapy” (Pharmaceutics, 2020).
Where two headings read alike, the source gives them in different places.

Tests used:
[1] = Side effects after i.v. administration in mice; type: in vivo, Balb/c nude mice
[2] = Biodistribution in A431 tumor-bearing mice (Cy7 fluorescence and mTHPC HPLC); conditions: 4 h
Procedure: (§1) Mice were inoculated with 1 × 10^6 A431 cells suspended in 100 μL PBS subcutaneously into the right flank. […] Tumors were measured using a digital caliper. The tumor volume V (in mm^3) was calculated using the equation V = (π/6)LS^2, in which L is the largest and S is the smallest superficial diameter [30].
(§2) Tumors and a panel of organs (spleen, liver, lung, heart, kidney, skin, femur, and brain) were excised and imaged ex vivo by 2D fluorescence reflectance imaging (FRI) using a Pearl Trilogy imager from LI-COR and then stored at −80 °C until further processing for quantification. Organs and tumors from three untreated animals were used as controls.
(§3) To quantify the content of mTHPC and micelles in the tumors and the different organs, the excised tissue samples were treated as follows. First, 100 μL of RIPA lysis buffer was added to 100 mg of sliced tissues or organs. The mixture was homogenized by a tissue grinder (Percellys 24) at a speed of 6000/s for 60 s (for femur samples, 6000/s for 180 s) and the homogenate was subsequently aliquoted. To determine the mTHPC concentration in the samples, 1 volume of an aliquot of the homogenate (30 μL) was mixed with 120 μL of acetonitrile/DMSO (4:1 v/v) and vortexed for 1 min. The mixture was then centrifuged at 15,000× g for 10 min. Next, 50 μL of the obtained supernatant was injected into the HPLC system consisting of a Waters X Select Charged Surface Hybrid (CSH) C18 3.5 μm 4.6 × 150 mm column coupled with a fluorescence detector set at λex 420 nm and λem 650 nm to analyze mTHPC concentration [38]. The mobile phase was 0.1 % trifluoroacetic acid in acetonitrile/water (60:40, v/v) at a flow rate of 1 mL/min. The measuring range was from 0.005 to 4 μg/mL and the detection limit was 5 ng/mL. Calibration curves were obtained from a series of standard solutions of mTHPC in DMSO, to which 45 μL of the corresponding homogenized tissue samples obtained from control mice (i.e., not treated with any formulations) was added, followed by mTHPC extraction using acetonitrile/DMSO (4:1, v/v) and HPLC analysis.
(§4) To determine the concentration of Cy7-labeled micelles in the tissue homogenates, 1 volume of another aliquot of the homogenate (30 μL) was vortex-mixed with 2 volumes of RIPA lysis buffer (60 μL) for 1 min. The fluorescence of Cy7 in the mixture (20 μL) was detected at the 800 nm channel (i.e., λex 785 nm and λem 820 nm), using a LI-COR Odyssey scanner imaging system, and a calibration curve was obtained using samples with different concentrations of Cy7-labeled copolymer in a mixture of RIPA buffer (1 volume) and the corresponding homogenized tumor or organ samples (2 volumes) obtained from non-treated mice.

[3] = test system: cells; parameters: method as in PMID 32142290; conditions: cited from earlier work
[4] = in vivo; conditions: female, Balb/c nude, mouse, plasma, iv, 300 ug/kg
Procedure: as §1
(§5) For the latter, mice were killed through cervical dislocation while under deep isoflurane anesthesia. […] The plasma supernatant was collected, extracted using acetonitrile/DMSO (4:1, v/v), and analyzed by high-performance liquid chromatography (HPLC) and a LI-COR Odyssey imaging system to quantify the amount of mTHPC and Cy7-labeled micelles, respectively, as previously described [38]. Plasma concentration curves were analyzed by non-compartmental analysis with the PKSolver add-in for Microsoft Excel [40].

[5] = Circulation kinetics in A431 tumor-bearing mice (plasma Cy7 and mTHPC); conditions: mTHPC detection, i.v. 300 µg mTHPC/kg
Procedure: as §1, §5

[6] = in vivo; conditions: female, Balb/c nude, mouse, intravenous, 0.3 mg/kg
Procedure: as §1, §2, §3, §4

[7] = test system: A431 cells; parameters: method as in PMID 32142290; conditions: same conditions, cited from earlier work
[8] = test system: HeLa cells; parameters: method as in PMID 32142290; conditions: cited from earlier work
[9] = parameters: method as in PMID 25388924; conditions: cited from earlier work

Compound: Oc1cccc(-c2c3nc(c(-c4cccc(O)c4)c4ccc([nH]4)c(-c4cccc(O)c4)c4nc(c(-c5cccc(O)c5)c5ccc2[nH]5)CC4)C=C3)c1 [Free mTHPC, meta-tetra(hydroxyphenyl)chlorin]
- side effects after i.v. administration ([1]; 300 µg mTHPC/kg, free mTHPC in ethanol/propylene glycol/PBS 20:30:50, micelles ~1 mg polymer, also reported in ref 38): tachypnea, passiveness immediately post-injection
- loss of body weight ([1]; on average, within 24 h after i.v. injection): ~ 1 g
- total mTHPC accumulation in liver [2]: ~ 15 % ID per liver
- total mTHPC accumulation in spleen or lung [2]: ~ 1 % ID per spleen or lung
- mTHPC concentration toxic to cells without illumination ([3]; after 7 h): higher than 50 µg/mL
- mTHPC concentration toxic to cells without illumination ([3]; after 24 h): > 20 µg/mL
- Vd [4]: 0.12 L/kg
- clearance [4]: 0.22 mL/min/kg
- AUC [5]: 442 h*%
- Half-life Phase α ([5]; estimated from first hour): ≤0.5 h
- Half-life Phase β ([5]; non-compartmental analysis): 2.1 h
- tissue uptake at 4 h ([6]; liver): ~15 %ID/g
- tissue uptake at 24 h ([6]; liver): ~5 %ID/g
- tissue uptake at 24 h ([6]; tumor, kidney, heart, femur): 2 to 3 %ID/g
- EC50 ([7]; listed as free mTHPC): ~ 1.5 µg/mL
- EC50 [7]: 1.6 ± 0.1 [38] µg/mL
- EC50 [8]: 1.2 [38] µg/mL
- EC50 ([8]; listed as free mTHPC): ~ 1.5 µg/mL

Compound: axially solketal-substituted silicon phthalocyanine [Si(sol)2Pc]
- quenching concentration ([9]; in aromatic-substituted thermosensitive micelles, 0.45 mg/mL polymer): 16 µg/mL
- quenching concentration ([9]; in corresponding non-aromatic micelles): ~ 0.05 µg/mL
